Tests used:
[1] = octanol/water (PBS buffer) partition coefficient (log D); format: physicochemical
[2] = tested on: B16 murine melanoma tumours; assay: Ex vivo biodistribution of [18F]-labelled compounds; format: in vivo, C57BL/6J mice
Experimental: All our studies were performed in accordance with French and European Economic Community (86-609, EEC) guidelines for care of laboratory animals. Protocols were performed under the authorization of the French Direction des Services Veterinaires (authorization no. CE 86-12). Male C57BL/6J mice were originating from Charles River laboratories and maintained at 21° C. with a 12 h/12 h light/dark cycle, fed with a breeding diet (diet A04 from Safe, Villemoisson, France) and received water ad libitum. For transplantation B16BL6 cell suspension were grown in a monolayer culture to confluence, after which cells were trypsinized, washed with phosphate buffer saline (PBS) and they were resuspended in PBS. Mice were anesthetized by isoflurane (4% for induction and 2±0.5% for maintaining in oxygen flux) inhalation. The primary tumour model was induced by subcutaneous injection of 3×10^5 melanoma B16B16 cells in 0.1 mL on the right shoulder of mice.
Ex vivo biodistribution studies: An ex vivo biodistribution study was performed for better comparison of [^18F](1) and [^18F](5). Experimentations were undertaken at day-10 or day-14 after cell inoculation (n=3-6/group). […] Tumours and major organs and tissues were promptly excised, harvested, weighted and their radioactivity counted using a calibrated γ-counter with a 400 to 600 keV energy window. After radioactive decay correction, results were expressed as percentage of injected dose per gram of tissue (% ID/g).

[3] = [18F](1) stability study on ex vivo extracts; format: in vivo, mice
Experimental: Six primary melanoma bearing mice were intravenously injected with 18 MBq of [^18F](1) and sacrificed 30 min, 1 h and 2 h after tracer injection. To determine the metabolic stability of [^18F](1), blood, tumour, eyes, liver and urine samples were collected. Blood was immediately centrifuged for 5 min at 3,000 rpm and plasma directly investigated by analytical HPLC. Other organs were pooled and homogenized using GentleMACS™ dissociator (Miltenyi Biotec, Bergisch Gladbach, Germany), suspended in 5 mL of methanol/NH4OH 99.8:0.2 and centrifuged for 5 min at 3,000 rpm. The extraction efficiency was determined by measuring the radioactivity of supernatants and precipitates. Supernatants were passed through a 0.22 μm Millipore filter and then concentrated to a volume between 200 and 500 μL before injection (duplicate) onto the analytical HPLC (Waters Symmetry® C18; Gradient elution: 60% to 90% MeOH (0.4% NH4OH) in water (0.4% NH4OH) (10 min), then 60% for 7 min).

CCN(CCNC(=O)c1cnc2cc(I)ccc2n1)CCOCCOCCOCC[18F] [[^18F](1)]
octanol/water (PBS buffer) partition coefficient (log D) [1]: 1.52±0.03
% ID/g (tumour) ([2]; 1 h p.i.): 14.05 ± 1.42 % ID/g
% ID/g Blood ([2]; 1 h p.i.): 1.42 ± 0.32 % ID/g
% ID/g Bones ([2]; 1 h p.i.): 1.40±0.10 % ID/g
% ID/g Brain ([2]; 1 h p.i.): 1.82 ± 0.08 % ID/g
% ID/g Ceacum ([2]; 1 h p.i.): 7.27 ± 0.62 % ID/g
% ID/g Colon + faeces ([2]; 1 h p.i.): 7.17 ± 2.93 % ID/g
% ID/g Eyes ([2]; 1 h p.i.): 18.36 ± 4.74 % ID/g
% ID/g Heart ([2]; 1 h p.i.): 2.72 ± 0.18 % ID/g
% ID/g Kidney ([2]; 1 h p.i.): 3.46 ± 0.53 % ID/g
% ID/g Liver ([2]; 1 h p.i.): 2.56 ± 0.22 % ID/g
% ID/g Lung ([2]; 1 h p.i.): 1.86 ± 0.15 % ID/g
% ID/g Muscle ([2]; 1 h p.i.): 1.17 ± 0.12 % ID/g
% ID/g Pancreas ([2]; 1 h p.i.): 2.09 ± 0.42 % ID/g
% ID/g Skin ([2]; 1 h p.i.): 1.44 ± 0.19 % ID/g
% ID/g Small intestine ([2]; 1 h p.i.): 7.58 ± 1.80 % ID/g
% ID/g Spleen ([2]; 1 h p.i.): 3.72 ± 1.49 % ID/g
% ID/g Stomach ([2]; 1 h p.i.): 4.41 ± 1.36 % ID/g
TBR Tumour-to-Blood Ratio ([2]; 1 h p.i.): 10.24 ± 2.83
TBoR Tumour-to-Bone Ratio ([2]; 1 h p.i.): 10.11 ± 1.87
TMR Tumour-to-Muscle Ratio ([2]; 1 h p.i.): 12.12 ± 2.29
% ID/g (tumour) ([2]; 2 h p.i.): 13.07 ± 1.22 % ID/g
% ID/g Blood ([2]; 2 h p.i.): 1.12 ± 0.24 % ID/g
% ID/g Bones ([2]; 2 h p.i.): 1.96 ± 0.51 % ID/g
% ID/g Brain ([2]; 2 h p.i.): 1.39 ± 0.25 % ID/g
% ID/g Ceacum ([2]; 2 h p.i.): 8.94 ± 1.78 % ID/g
% ID/g Colon + faeces ([2]; 2 h p.i.): 6.05 ± 1.72 % ID/g
% ID/g Eyes ([2]; 2 h p.i.): 18.17 ± 3.15 % ID/g
% ID/g Heart ([2]; 2 h p.i.): 2.14 ± 0.33 % ID/g
% ID/g Kidney ([2]; 2 h p.i.): 2.18 ± 0.43 % ID/g
% ID/g Liver ([2]; 2 h p.i.): 1.88 ± 0.34 % ID/g
% ID/g Lung ([2]; 2 h p.i.): 1.65 ± 0.11 % ID/g
% ID/g Muscle ([2]; 2 h p.i.): 0.92 ± 0.15 % ID/g
% ID/g Pancreas ([2]; 2 h p.i.): 1.33 ± 0.28 % ID/g
% ID/g Skin ([2]; 2 h p.i.): 1.51 ± 0.53 % ID/g
% ID/g Small intestine ([2]; 2 h p.i.): 4.28 ± 1.18 % ID/g
% ID/g Spleen ([2]; 2 h p.i.): 2.88 ± 2.11 % ID/g
% ID/g Stomach ([2]; 2 h p.i.): 2.48 ± 0.88 % ID/g
TBR Tumour-to-Blood Ratio ([2]; 2 h p.i.): 12.19 ± 3.32
TBoR Tumour-to-Bone Ratio ([2]; 2 h p.i.): 7.13 ± 2.21
TMR Tumour-to-Muscle Ratio ([2]; 2 h p.i.): 14.46 ± 2.62
% ID/g (tumour) ([2]; 3 h p.i.): 11.55±1.24 % ID/g
% ID/g Blood ([2]; 3 h p.i.): 0.80 ± 0.07 % ID/g
% ID/g Bones ([2]; 3 h p.i.): 3.27 ± 0.70 % ID/g
% ID/g Brain ([2]; 3 h p.i.): 1.37 ± 0.35 % ID/g
% ID/g Ceacum ([2]; 3 h p.i.): 10.79 ± 1.54 % ID/g
% ID/g Colon + faeces ([2]; 3 h p.i.): 8.09 ± 5.04 % ID/g
% ID/g Eyes ([2]; 3 h p.i.): 17.96 ± 2.73 % ID/g
% ID/g Heart ([2]; 3 h p.i.): 2.32 ± 0.50 % ID/g
% ID/g Kidney ([2]; 3 h p.i.): 2.19 ± 0.36 % ID/g
% ID/g Liver ([2]; 3 h p.i.): 1.99 ± 0.45 % ID/g
% ID/g Lung ([2]; 3 h p.i.): 1.60 ± 0.09 % ID/g
% ID/g Muscle ([2]; 3 h p.i.): 0.81 ± 0.10 % ID/g
% ID/g Pancreas ([2]; 3 h p.i.): 1.33 ± 0.35 % ID/g
% ID/g Skin ([2]; 3 h p.i.): 1.05 ± 0.12 % ID/g
% ID/g Small intestine ([2]; 3 h p.i.): 3.91 ± 1.05 % ID/g
% ID/g Spleen ([2]; 3 h p.i.): 1.87 ± 0.38 % ID/g
% ID/g Stomach ([2]; 3 h p.i.): 2.81 ± 2.23 % ID/g
TBR Tumour-to-Blood Ratio ([2]; 3 h p.i.): 14.43±1.75
TBoR Tumour-to-Bone Ratio ([2]; 3 h p.i.): 3.70 ± 1.17
TMR Tumour-to-Muscle Ratio ([2]; 3 h p.i.): 14.46±3.06
in vivo defluorination ([2]; 3 h p.i.): Partial in vivo defluorinations
% unchanged [18F](1) ([3]; Black, Blood, 30 min): 15.2%
% unchanged [18F](1) ([3]; Black, Eyes, 1 h): 100%
% unchanged [18F](1) ([3]; Black, Eyes, 2 h): >99%
% unchanged [18F](1) ([3]; Black, Liver, 1 h): <10%
% unchanged [18F](1) ([3]; Black, Liver, 2 h): <20%
% unchanged [18F](1) ([3]; Black, Tumour, 1 h): >99%
% unchanged [18F](1) ([3]; Black, Tumour, 2 h): 100%
% unchanged [18F](1) ([3]; Black, Urine, 1 h): 0.1%
% unchanged [18F](1) ([3]; Black, Urine, 2 h): 0.0%
% unchanged [18F](1) ([3]; Nude, Blood, 30 min): 3.0%
% unchanged [18F](1) ([3]; Nude, Liver, 2 h): <10%
% unchanged [18F](1) ([3]; Nude, Tumour, 1 h): >99%
% unchanged [18F](1) ([3]; Nude, Tumour, 2 h): >99%
% unchanged [18F](1) ([3]; Nude, Urine, 1 h): 2.7%
% unchanged [18F](1) ([3]; Nude, Urine, 2 h): 1.4%

From patent publication US20150079000A1, “Labelled Quinoxaline Derivatives as Multimodal Radiopharmaceuticals and Their Precursors” (INSTITUT NATIONAL DE LA SANTET DE LA RECHERCHE MEDICALE, priority 2012, published 2015)
